The source of these data is paper PMC8286840, “Identifying SARS-CoV-2 antiviral compounds by screening for small molecule inhibitors of Nsp3 papain-like protease” (Biochemical Journal, 2021).

The target in assay [1] is T1, SARS-CoV-2 PLpro (nsp3 1564–1878) (Severe acute respiratory syndrome coronavirus 2, UniProt P0DTD1). The experiment in a line: biochemical. Set-up: FRET-quenched peptide (Pro3) cleavage by PLpro, 10 min pre-incubation, slope over 20 min, normalised to no-compound control. The note with it: low concentration screen, read-out: % of control remaining.
The target in assay [2] is T1, SARS-CoV-2 PLpro (nsp3 1564–1878). Briefly: biochemical. Set-up: FRET-quenched peptide (Pro3) cleavage by PLpro, 10 min pre-incubation, slope over 20 min, normalised to no-compound control. The note with it: high concentration screen, read-out: % of control remaining.
Procedure: The plates were organized with columns 3–22 containing the compounds; the remaining columns were used for reaction controls including substrate only and substrate with enzyme but no compound (Figure 3Aii). The PLpro enzyme was pre-incubated with the compounds for 10 min, and then the reaction was initiated by the addition of substrate. […] We incubated the inhibitors with PLpro before the enzymatic reaction so that the slow-binding inhibitors will not be missed out [21]. […] Fluorescence was read on a Spark multimode microplate reader (Tecan) with an excitation wavelength at 330 nm and emission wavelength at 420 nm. […] An amount of 5 µl of the enzyme was pre-incubated with compounds for 10 min before the addition of 15 µl substrate. Fluorescence was monitored at 2 min for 20 min with 3 min intervals giving a total of seven readings.

Each structure is given as a SMILES string. Counter-ions that a name gives are not always drawn. Like-named read-outs stand apart in the source and are kept apart here.

With `CCCCn1c2ccc(O)cc2c2c3c(c(-c4ccccc4Cl)cc21)C(=O)NC3=O` [Wee1 Inhibitor II], the remaining activity at 1.25 µM in assay [1] (Well no.=2685) is 90.9%. The remaining activity at 3.75 µM in assay [2] (Well no.=2685) is 88.5%.
As to `O=C1NC(=O)c2c1c(-c1ccccc1Cl)cc1[nH]c3ccc(O)cc3c21` [Wee1 Inhibitor], the remaining activity at 1.25 µM in assay [1] (Well no.=2683) came to 97.3%. Besides, in assay [2] (Well no.=2683), the remaining activity at 3.75 µM was found to be 97.7%.
As for `COc1c(O)cc(O)c2c(=O)cc(-c3ccccc3)oc12` [Wogonin], the remaining activity at 1.25 µM in assay [1] (Well no.=3735) is 96.1%. In addition, the remaining activity at 3.75 µM in assay [2] (Well no.=3735) was 98.6%.
For `COC[C@H]1OC(=O)c2coc3c2[C@@]1(C)C1=C(C3=O)C2CCC(=O)[C@@]2(C)C[C@H]1OC(C)=O` (some centres unmarked) [Wortmannin from Penicillium funiculosum], in assay [1] (Well no.=1386), the remaining activity at 1.25 µM stood at 92.9%. Moreover, the remaining activity at 3.75 µM in assay [2] (Well no.=1386) is 94.7%.
Regarding `COC[C@H]1OC(=O)c2coc3c2[C@@]1(C)C1=C(C3=O)[C@@H]2CCC(=O)[C@@]2(C)C[C@H]1OC(C)=O` [Wortmannin], in assay [1] (Well no.=3232), the remaining activity at 1.25 µM is 99.9%. Also, in assay [2] (Well no.=3232), the remaining activity at 3.75 µM was 102%.
With `Oc1nc(-c2ccc(C(F)(F)F)cc2)nc2c1CSCC2` [XAV-939], the remaining activity at 1.25 µM in assay [1] (Well no.=4719) was found to be 102%. Besides, the remaining activity at 3.75 µM in assay [2] (Well no.=4719) turned out to be 103%.
In the case of `CCN(Cc1ccccc1)C(=O)Cn1c(=O)n(C)c2cnc(-c3ccccc3)nc21` [XBD173], the remaining activity at 1.25 µM in assay [1] (Well no.=6053) came out at 102%. In addition, the remaining activity at 3.75 µM in assay [2] (Well no.=6053) worked out at 100%.
For the molecule `O=C(O)c1cc(C(F)(F)F)ccc1N1CC[C@H](OCc2ccccn2)C1` [XEN445], the remaining activity at 1.25 µM in assay [1] (Well no.=8574) was determined as 105%. Also, in assay [2] (Well no.=8574), the remaining activity at 3.75 µM is 109%.
As for `CCN(CC)CCCC(C)Nc1cc(/C=C/c2ccccc2Cl)nc2cc(Cl)ccc12` (centres unmarked) [XIB4035], the remaining activity at 1.25 µM in assay [1] (Well no.=5692) was 89%. The remaining activity at 3.75 µM in assay [2] (Well no.=5692) was 89.5%.
As for `COc1ccc(Cl)c(Nc2nc3ccccc3nc2NS(=O)(=O)c2cccc(NC(=O)C(C)(C)N)c2)c1` [XL147], in assay [1] (Well no.=4669), the remaining activity at 1.25 µM turned out to be 105%. Also, in assay [2] (Well no.=4669), the remaining activity at 3.75 µM stood at 106%.
In the case of `CC[C@@H](C)Nc1cc(C(=O)N[C@H]2C[C@H]3CC[C@@H](C2)N3c2ccc(C(=O)C3CC3)cn2)c(C)cc1C(N)=O` [XL888], in assay [1] (Well no.=8982), the remaining activity at 1.25 µM was 90.5%. In addition, in assay [2] (Well no.=8982), the remaining activity at 3.75 µM was 93.8%.
As for `CCOc1cc(N2CCC(O)CC2)ccc1Nc1ncc2c(n1)N(C)c1ccccc1C(=O)N2C` [XMD8-92], the remaining activity at 1.25 µM in assay [1] (Well no.=5565) was 93.8%. Moreover, the remaining activity at 3.75 µM in assay [2] (Well no.=5565) came to 95.2%.
Regarding `CN1C(=O)c2sccc2N(C)c2nc(Nc3ccc(S(N)(=O)=O)cc3)ncc21` [XMU-MP-1], in assay [1] (Well no.=8268), the remaining activity at 1.25 µM worked out at 97%. For the same molecule, the remaining activity at 3.75 µM in assay [2] (Well no.=8268) turned out to be 91.6%.
In the case of `FC(F)(F)c1cccc(C2=CCN(CCc3ccc4ccccc4c3)CC2)c1` [Xaliproden hydrochloride], in assay [1] (Well no.=5767), the remaining activity at 1.25 µM was determined as 106%. For the same molecule, in assay [2] (Well no.=5767), the remaining activity at 3.75 µM was 105%.
Turning to `O=C(NCCNCC(O)COc1ccc(O)cc1)N1CCOCC1` (centres unmarked) [Xamoterol hemifumarate], the remaining activity at 1.25 µM in assay [1] (Well no.=1436) was determined as 95.5%; in assay [1] (Well no.=1741) it was 102%. In addition, the remaining activity at 3.75 µM in assay [2] (Well no.=1436) was determined as 95.1%; in assay [2] (Well no.=1741) it was 103%.
With `CCCCCCOc1nsnc1C1=CCCN(C)C1` [Xanomeline (oxalate)], the remaining activity at 1.25 µM in assay [1] (Well no.=8005) came out at 103%. The remaining activity at 3.75 µM in assay [2] (Well no.=8005) came to 100%.
On to `CCCn1c(=O)c2[nH]c(-c3ccc(OCC(=O)NCCN)cc3)nc2n(CCC)c1=O` [Xanthine amine congener], for which the remaining activity at 1.25 µM in assay [1] (Well no.=1532) was 95.7%. In addition, in assay [2] (Well no.=1532), the remaining activity at 3.75 µM worked out at 89.4%.
As for `O=c1[nH]c(=O)c2nc[nH]c2[nH]1` [Xanthine], the remaining activity at 1.25 µM in assay [1] (Well no.=7203) came to 97.4%. In addition, in assay [2] (Well no.=7203), the remaining activity at 3.75 µM was 96.5%.
As to `COc1cc(O)c(CC=C(C)C)c(O)c1C(=O)/C=C/c1ccc(O)cc1` [Xanthohumol], the remaining activity at 1.25 µM in assay [1] (Well no.=8578) was determined as 106%. The remaining activity at 3.75 µM in assay [2] (Well no.=8578) turned out to be 102%.
For `OC[C@H]1O[C@@H](n2cnc3c(O)nc(O)nc32)[C@H](O)[C@@H]1O` [Xanthosine], the remaining activity at 1.25 µM in assay [1] (Well no.=7397) was 106%. Moreover, in assay [2] (Well no.=7397), the remaining activity at 3.75 µM is 107%.
For the molecule `COc1c2occc2cc2ccc(=O)oc12` [Xanthotoxin], the remaining activity at 1.25 µM in assay [1] (Well no.=3459) was determined as 104%. The remaining activity at 3.75 µM in assay [2] (Well no.=3459) was found to be 106%.
For the molecule `Cc1cccc(C)c1NC1=NCCCS1` [Xylazine (hydrochloride)], in assay [1] (Well no.=6847), the remaining activity at 1.25 µM is 101%. The remaining activity at 3.75 µM in assay [2] (Well no.=6847) was found to be 95.9%.
Regarding `Cc1cccc(C)c1NC1=NCCCS1` [Xylazine], in assay [1] (Well no.=1652), the remaining activity at 1.25 µM was 103%. In addition, in assay [2] (Well no.=1652), the remaining activity at 3.75 µM turned out to be 106%.
Turning to `Cc1cc(C(C)(C)C)cc(C)c1CC1=NCCN1` [Xylometazoline (hydrochloride)], the remaining activity at 1.25 µM in assay [1] (Well no.=6281) was 106%. Also, in assay [2] (Well no.=6281), the remaining activity at 3.75 µM was 106%.
Take `Cc1cc(C(C)(C)C)cc(C)c1CC1=NCCN1` [Xylometazoline hydrochloride]: the remaining activity at 1.25 µM in assay [1] (Well no.=1484) was 96.8%. The remaining activity at 3.75 µM in assay [2] (Well no.=1484) was 96.2%.
Consider `O=C[C@H](O)[C@@H](O)[C@H](O)CO` [Xylose], for which the results for the remaining activity at 1.25 µM in assay [1] (Well no.=6351) and in assay [1] (Well no.=8144) were 103% and 99.9%, respectively. Further, the remaining activity at 3.75 µM stood at 105% in assay [2] (Well no.=6351) and 96.9% in assay [2] (Well no.=8144).
In the case of `C[C@@H](N)[C@H]1CC[C@H](C(=O)Nc2ccncc2)CC1` [Y-27632 dihydrochloride - trans-4-[(1R)-1-Aminoethyl]-N-4-pyridinylcyclohexanecarboxamide dihydrochloride], the remaining activity at 1.25 µM in assay [1] (Well no.=2350) came out at 105%. Moreover, the remaining activity at 3.75 µM in assay [2] (Well no.=2350) turned out to be 104%.
Consider `CCOC(=O)c1[nH]c2cc(Cl)ccc2c1C(C(=O)NC(C)(C)C)N(C=O)Cc1ccc(Cl)cc1` (centres unmarked) [YH239-EE], for which the remaining activity at 1.25 µM in assay [1] (Well no.=6392) stood at 98.6%. The remaining activity at 3.75 µM in assay [2] (Well no.=6392) worked out at 97.4%.
With `COc1ccc(C(=O)CC2(O)C(=O)Nc3c(Cl)ccc(Cl)c32)cc1` (centres unmarked) [YK-4-279], in assay [1] (Well no.=6444), the remaining activity at 1.25 µM was 97.8%. Also, the remaining activity at 3.75 µM in assay [2] (Well no.=6444) is 98.7%.
With `O=c1ccccn1CC1(O)CCN(Cc2ccccc2)CC1` [YL0919], the remaining activity at 1.25 µM in assay [1] (Well no.=8009) is 101%. Also, the remaining activity at 3.75 µM in assay [2] (Well no.=8009) is 98.2%.
Take `COCC[n+]1c2c(n(Cc3cnccn3)c1C)C(=O)c1ccccc1C2=O` [YM-155]: the remaining activity at 1.25 µM in assay [1] (Well no.=6678) turned out to be 94.8%. Further, the remaining activity at 3.75 µM in assay [2] (Well no.=6678) stood at 91.4%.
Consider `C[C@H](NC(=O)Cc1cc(F)cc(F)c1)C(=O)N[C@@H]1C(=O)N(C)c2ccccc2-c2ccccc21` [YO-01027], for which the remaining activity at 1.25 µM in assay [1] (Well no.=4687) amounted to 101%. In assay [2] (Well no.=4687), the remaining activity at 3.75 µM is 105%.
